The source of these data is ChEMBL document CHEMBL5096215, “Design, synthesis and antitumor efficacy evaluation of a series of novel β-elemene-based macrocycles” (Bioorg Med Chem, 2022).

Assay [1] concerns A549. Description: Antiproliferative activity against human A549 cells assessed as inhibition of cell growth at 50 uM measured after 48 hrs by CCK8 assay relative to control. The assay is classed as functional. (Formazan colour is commonly taken as a measure of viable cells.)
The nature of assay [2]: Antiproliferative activity against human U-87 MG cells assessed as inhibition of cell growth at 50 uM measured after 48 hrs by CCK8 assay relative to control. The assay is classed as functional, U-87MG ATCC.
A short description of assay [3]: Antiproliferative activity against human U-87 MG cells assessed as inhibition of cell growth measured after 48 hrs by CCK8 assay relative to control. The format is functional, cell-based, U-87MG ATCC.
The subject of assay [4] is HCT-116. Briefly: Antiproliferative activity against human HCT-116 cells assessed as inhibition of cell growth measured after 48 hrs by CCK8 assay relative to control. Conditions: HCT-116, 48 h. The format is functional, cell-based.
In assay [5] the test system is A549. Description: Antiproliferative activity against human A549 cells assessed as inhibition of cell growth measured after 48 hrs by CCK8 assay relative to control. The format is functional, cell-based. Conditions: A549, 48 h.
For assay [6], the system named is PC-3. Description: Antiproliferative activity against human PC-3 cells assessed as inhibition of cell growth at 50 uM measured after 48 hrs by CCK8 assay relative to control. The assay is classed as functional.
In assay [7] the test system is PC-3. Briefly: Antiproliferative activity against human PC-3 cells assessed as inhibition of cell growth measured after 48 hrs by CCK8 assay relative to control. The format is functional, cell-based. The settings on record: PC-3, 48 h.
The subject of assay [8] is U-251. Briefly: Antiproliferative activity against human U-251 cells assessed as inhibition of cell growth at 50 uM measured after 48 hrs by CCK8 assay relative to control. The assay is classed as functional.
The test system of assay [9] is HCT-116. Briefly: Antiproliferative activity against human HCT-116 cells assessed as inhibition of cell growth at 50 uM measured after 48 hrs by CCK8 assay relative to control. The assay is classed as functional.
The subject of assay [10] is U-251. Briefly: Antiproliferative activity against human U-251 cells assessed as inhibition of cell growth measured after 48 hrs by CCK8 assay relative to control. Conditions: U-251, 48 h. The assay is classed as functional, cell-based.
In assay [11] the test system is A549. Description: Potency index, […] for antiproliferative activity against human A549 cells assessed as inhibition of cell growth measured after 48 hrs by CCK8 assay. The assay is classed as functional.
Assay [12] has as its system U-251. Description: Potency index, […] for antiproliferative activity against human U-251 cells assessed as inhibition of cell growth measured after 48 hrs by CCK8 assay. The assay is classed as functional.
Assay [13] relates to PC-3. Briefly: Potency index, […] for antiproliferative activity against human PC-3 cells assessed as inhibition of cell growth measured after 48 hrs by CCK8 assay. The format is functional.
Assay [14] deals with HCT-116. Briefly: Potency index, […] for antiproliferative activity against human HCT-116 cells assessed as inhibition of cell growth measured after 48 hrs by CCK8 assay. The assay is classed as functional.
Assay [15] is described as follows: Potency index, […] for antiproliferative activity against human U-87 MG cells assessed as inhibition of cell growth measured after 48 hrs by CCK8 assay. The format is functional, U-87MG ATCC.

Usually inhibition stands for the drop in the measured response relative to a control, in per cent. Broadly, the IC50 is the concentration at which inhibition is half-maximal. As for `C=C[C@]1(C)CC[C@@H](C(=C)C)C[C@H]1C(=C)C`, the inhibition at 50 µM in assay [1], in assay [2], in assay [6], in assay [8] and in assay [9] was < 20% each time. The IC50 in assay [3] turned out to be 266 µM; in assay [4], 782 µM; in assay [5], 227 µM; in assay [7], 276 µM; in assay [10], 181 µM.
For `C=C[C@]1(C)CC[C@@H]2C[C@H]1C(=C)CN(C)CCN(C)Cc1cccc(c1)CN(C)CCN(C)CC2=C`, the inhibition at 50 µM in assay [1] was 60.7%; in [2], < 20%; in assay [6], 68.8%; in assay [8] it was 98.5%; in assay [9], 94.8%. The “Ratio IC50” value was 5 in assay [11]; 5 in assay [12]; 5 in [13]; 20 in assay [14]; 5 in assay [15]. Moreover, the IC50 in [4] worked out at 17.6 µM; in [5] it was 44.8 µM; in [7], 38.6 µM; in [10], 23 µM.
